Data: article PMC10447463, “Data-mining unveils structure–property–activity correlation of viral infectivity enhancing self-assembling peptides” (Nature Communications, 2023)

Columns and labels:
[1] = tested on: HIV-1 infection of TZM-bl cells; test: HIV-1 infectivity enhancement assay, β-galactosidase luminescence; format: cell-based; conditions: for Log10 Infection Rel EF-C: log10 of infection relative to EF-C, Figure 7B; for Inf. rel. EF-C: n-fold infection vs virus only, relative to that of EF-C, 1.3 µM peptide
[2] = format: physicochemical; design: key to Fibril / Fibril Formation / TEM 2cat / Fibril: 1 = fibrils present; 0 non-fibrillar structures; conditions: for Fibril / Fibril Formation: TEM, 1 mg/mL, uranyl acetate stain, qualitative
[3] = Turbidity, derived count rate of scattered light; format: physicochemical; conditions: for Count Rate / kcps: derived count rate of scattered light at 633 nm, 173°, from zeta-potential measurement, 0.1 mg/mL in 1 mM KCl after 1 d at 1 mg/mL in PBS, turbidity / microscopic aggregation, mean of triplicate
In short: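 One-day room-temperature aggregation at 1 mg/mL in PBS (pH 7.4) preceded measurement; samples then went into 1 mM KCl. Triplicates per sample, two independent experiments averaged.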

[4] = Turbidity, derived count rate of scattered light; format: physicochemical; conditions: log10 of derived count rate of scattered light, Figure 7B

Substance | Log10 Infection Rel EF-C [1] | Inf. rel. EF-C [1] | Fibril / Fibril Formation [2] | Count Rate / kcps [3] | Log10 Count Rate [4] | TEM: 1= fibrils, 0= aggregates (micelle), 0.5 = aggregates and fibrils, -1 = nothing obersved, STD prep ([2]; STD prep) | Zeta Count Rate Category ([3]; category 1 / 0, no key given) | Zeta Count Rate / kcps ([3]; derived count rate of scattered light)
DFNKF [reference compound] | -1.07 | 0.08 | 1 | 1065 kcps | 3.027 |  |  | 
GAITIG-NH2 [reference compound] | -1.35 | 0.04 | 0 | 30 kcps | 1.474 |  |  | 
GNNQQNY [reference compound] | -1.28 | 0.05 | 0 | 37 kcps | 1.572 |  |  | 
GQTVTK [reference compound] | -1.25 | 0.06 | 0 | 34 kcps | 1.536 |  |  | 
IIKIIK [reference compound] | -1.1 | 0.08 | 0 | 4 kcps | 0.6128 |  |  | 
NSGAITIG-NH2 [reference compound] | -1.26 | 0.05 | 0 | 20 kcps | 1.294 |  |  | 
RCELARTLKR [reference compound] | -1.06 | 0.09 | 0 | 78 kcps | 1.893 |  |  | 
RIRIQIC [PS07] |  |  |  |  |  | 1 | 1 | 191.1 kcps
VLYVGSKT [reference compound] | -1.24 | 0.06 | 0 | 24 kcps | 1.386 |  |  | 
VQIVYK [reference compound] | -1.17 | 0.07 | 0 | 26 kcps | 1.414 |  |  | 
